# From BindingDB's records for doi:10.1016/j.bmcl.2007.07.028 (Bristol-Myers Squibb, 2007)
# Experiment: Antagonist activity at CCR2 in human PBMCs assessed as inhibition of MCP1-induced chemotaxis
row,SMILES,IC50 [µM]
1,"Cc1ccc(CNC[C@H](NC(=O)CNC(=O)c2cc(C(F)(F)F)ccc2NCc2ccccc2)C(=O)NC(C)(C)C)c(C)c1 [(S)-N-(2-(3-(2,4-dimethylbenzylamino)-1-(tert-butylamino)-1-oxopropan-2-ylamino)-2-oxoethyl)-2-(benzylamino)-5-(trifluoromethyl)benzamide]",0.039
2,"Cc1ccc(CNC[C@H](NC(=O)CNC(=O)c2cc(C(F)(F)F)ccc2N)C(=O)NC(C)(C)C)c(C)c1 [(S)-N-(2-(3-(2,4-dimethylbenzylamino)-1-(tert-butylamino)-1-oxopropan-2-ylamino)-2-oxoethyl)-2-amino-5-(trifluoromethyl)benzamide]",0.26
3,"Cc1ccc(CNC[C@H](NC(=O)CNC(=O)c2cccc(C(F)(F)F)c2)C(=O)NC(C)(C)C)c(C)c1 [(S)-N-(2-(3-(2,4-dimethylbenzylamino)-1-(tert-butylamino)-1-oxopropan-2-ylamino)-2-oxoethyl)-3-(trifluoromethyl)benzamide]",> 3
4,"Cc1ccc(CNC[C@H](NC(=O)CNC(=O)c2cccc(C(F)(F)F)c2)C(N)=O)c(C)c1 [(S)-N-(2-(3-(2,4-dimethylbenzylamino)-1-amino-1-oxopropan-2-ylamino)-2-oxoethyl)-3-(trifluoromethyl)benzamide]",> 1.5
5,"Cc1ccc(CNC[C@H](NC(=O)CNC(=O)c2cc(C(F)(F)F)ccc2NC(=O)NC(C)C)C(=O)NC(C)(C)C)c(C)c1 [(S)-1-(2-((2-(3-(2,4-dimethylbenzylamino)-1-(tert-butylamino)-1-oxopropan-2-ylamino)-2-oxoethyl)carbamoyl)-4-(trifluoromethyl)phenyl)-3-isopropylurea]",0.24

# Next, values leading:
row,IC50 [µM],SMILES
1,0.72,"Cc1ccc(CNC[C@H](NC(=O)CNC(=O)c2cc(N)cc(C(F)(F)F)c2)C(=O)NC(C)(C)C)c(C)c1 [(S)-N-(2-(3-(2,4-dimethylbenzylamino)-1-(tert-butylamino)-1-oxopropan-2-ylamino)-2-oxoethyl)-3-amino-5-(trifluoromethyl)benzamide]"
2,0.1,"CCNc1ccc(C(F)(F)F)cc1C(=O)NCC(=O)N[C@@H](CNCc1ccc(C)cc1C)C(=O)NC(C)(C)C [(S)-N-(2-(3-(2,4-dimethylbenzylamino)-1-(tert-butylamino)-1-oxopropan-2-ylamino)-2-oxoethyl)-2-(ethylamino)-5-(trifluoromethyl)benzamide]"
3,0.19,"CCNc1cc(C(=O)NCC(=O)N[C@@H](CNCc2ccc(C)cc2C)C(=O)NC(C)(C)C)cc(C(F)(F)F)c1 [(S)-N-(2-(3-(2,4-dimethylbenzylamino)-1-(tert-butylamino)-1-oxopropan-2-ylamino)-2-oxoethyl)-3-(ethylamino)-5-(trifluoromethyl)benzamide]"
